Reference: ChEMBL document CHEMBL1141500, “Thiol-based angiotensin-converting enzyme 2 inhibitors: P1' modifications for the exploration of the S1' subsite” (Bioorg Med Chem Lett, 2008)

Experiments:
[1] = molecular target: T1, Angiotensin-converting enzyme 2 (Homo sapiens, UniProt Q9BYF1); test: Inhibition of ACE2
[2] = molecular target: T2, Carboxypeptidase A1 (Homo sapiens, UniProt P15085); test: Inhibition of human recombinant CpA by fluorescence assay; details: read-out: Ki app
T2 sequence (P15085 whole entry): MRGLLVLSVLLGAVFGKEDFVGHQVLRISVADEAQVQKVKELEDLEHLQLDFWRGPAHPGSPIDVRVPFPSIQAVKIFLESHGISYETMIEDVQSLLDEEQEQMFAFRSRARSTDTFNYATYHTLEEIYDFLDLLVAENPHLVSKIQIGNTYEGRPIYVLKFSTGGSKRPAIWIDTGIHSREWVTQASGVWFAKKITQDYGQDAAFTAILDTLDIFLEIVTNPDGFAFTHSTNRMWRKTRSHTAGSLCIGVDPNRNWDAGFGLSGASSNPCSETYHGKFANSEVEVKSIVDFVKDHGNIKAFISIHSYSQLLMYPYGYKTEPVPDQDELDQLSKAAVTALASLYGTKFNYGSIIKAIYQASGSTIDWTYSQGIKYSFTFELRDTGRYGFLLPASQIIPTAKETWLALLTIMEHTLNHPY

[3] = species on record: Homo sapiens; test: Selectivity for human recombinant ACE2 over human recombinant ACE
[4] = molecular target: Neprilysin (Homo sapiens, UniProt P08473); test: Inhibition of human recombinant NEP by fluorescence assay; details: read-out: Ki app
[5] = molecular target: Angiotensin-converting enzyme (Homo sapiens, UniProt P12821); test: Inhibition of human recombinant ACE by fluorescence assay; details: read-out: Ki app
[6] = molecular target: T1, Angiotensin-converting enzyme 2; test: Inhibition of human recombinant ACE2 by fluorescence assay; details: read-out: Ki app
[7] = species on record: Homo sapiens; test: Selectivity for human recombinant ACE2 over human recombinant NEP
[8] = species on record: Homo sapiens; test: Selectivity for human recombinant ACE2 over human recombinant CpA

Chain of Angiotensin-converting enzyme (P12821 whole entry): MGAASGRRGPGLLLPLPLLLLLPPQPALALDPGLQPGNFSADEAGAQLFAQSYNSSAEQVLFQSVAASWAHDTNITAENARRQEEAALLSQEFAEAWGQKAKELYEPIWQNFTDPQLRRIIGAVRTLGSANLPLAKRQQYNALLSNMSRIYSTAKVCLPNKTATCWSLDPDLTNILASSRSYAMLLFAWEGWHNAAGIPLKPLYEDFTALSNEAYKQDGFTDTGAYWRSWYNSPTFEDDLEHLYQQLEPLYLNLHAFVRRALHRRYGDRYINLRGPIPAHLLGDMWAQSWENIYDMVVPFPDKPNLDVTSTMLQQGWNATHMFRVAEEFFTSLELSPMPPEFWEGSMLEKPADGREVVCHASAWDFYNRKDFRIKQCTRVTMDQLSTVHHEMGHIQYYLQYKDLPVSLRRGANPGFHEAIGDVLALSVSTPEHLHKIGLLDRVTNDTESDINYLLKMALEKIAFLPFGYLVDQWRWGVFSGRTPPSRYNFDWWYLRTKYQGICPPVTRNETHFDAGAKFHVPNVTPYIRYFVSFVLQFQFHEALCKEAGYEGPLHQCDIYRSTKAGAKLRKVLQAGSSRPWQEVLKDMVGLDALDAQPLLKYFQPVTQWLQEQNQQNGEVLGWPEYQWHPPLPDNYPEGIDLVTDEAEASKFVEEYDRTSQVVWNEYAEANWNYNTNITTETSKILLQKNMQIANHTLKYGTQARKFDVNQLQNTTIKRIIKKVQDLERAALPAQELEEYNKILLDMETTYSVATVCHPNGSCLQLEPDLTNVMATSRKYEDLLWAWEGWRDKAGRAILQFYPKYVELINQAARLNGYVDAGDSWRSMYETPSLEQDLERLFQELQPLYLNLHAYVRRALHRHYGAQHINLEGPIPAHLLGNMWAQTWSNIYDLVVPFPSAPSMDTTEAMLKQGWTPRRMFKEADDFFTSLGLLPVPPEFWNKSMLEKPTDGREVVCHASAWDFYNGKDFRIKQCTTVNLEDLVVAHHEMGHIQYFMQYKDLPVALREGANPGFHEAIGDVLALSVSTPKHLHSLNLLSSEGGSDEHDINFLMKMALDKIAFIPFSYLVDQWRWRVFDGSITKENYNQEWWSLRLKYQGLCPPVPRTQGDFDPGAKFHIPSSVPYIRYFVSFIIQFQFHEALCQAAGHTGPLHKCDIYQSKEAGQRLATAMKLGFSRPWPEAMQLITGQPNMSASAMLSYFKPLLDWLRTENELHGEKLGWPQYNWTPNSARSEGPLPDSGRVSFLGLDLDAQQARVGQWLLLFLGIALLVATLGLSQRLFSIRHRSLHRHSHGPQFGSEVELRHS
T1 sequence (Q9BYF1 whole entry): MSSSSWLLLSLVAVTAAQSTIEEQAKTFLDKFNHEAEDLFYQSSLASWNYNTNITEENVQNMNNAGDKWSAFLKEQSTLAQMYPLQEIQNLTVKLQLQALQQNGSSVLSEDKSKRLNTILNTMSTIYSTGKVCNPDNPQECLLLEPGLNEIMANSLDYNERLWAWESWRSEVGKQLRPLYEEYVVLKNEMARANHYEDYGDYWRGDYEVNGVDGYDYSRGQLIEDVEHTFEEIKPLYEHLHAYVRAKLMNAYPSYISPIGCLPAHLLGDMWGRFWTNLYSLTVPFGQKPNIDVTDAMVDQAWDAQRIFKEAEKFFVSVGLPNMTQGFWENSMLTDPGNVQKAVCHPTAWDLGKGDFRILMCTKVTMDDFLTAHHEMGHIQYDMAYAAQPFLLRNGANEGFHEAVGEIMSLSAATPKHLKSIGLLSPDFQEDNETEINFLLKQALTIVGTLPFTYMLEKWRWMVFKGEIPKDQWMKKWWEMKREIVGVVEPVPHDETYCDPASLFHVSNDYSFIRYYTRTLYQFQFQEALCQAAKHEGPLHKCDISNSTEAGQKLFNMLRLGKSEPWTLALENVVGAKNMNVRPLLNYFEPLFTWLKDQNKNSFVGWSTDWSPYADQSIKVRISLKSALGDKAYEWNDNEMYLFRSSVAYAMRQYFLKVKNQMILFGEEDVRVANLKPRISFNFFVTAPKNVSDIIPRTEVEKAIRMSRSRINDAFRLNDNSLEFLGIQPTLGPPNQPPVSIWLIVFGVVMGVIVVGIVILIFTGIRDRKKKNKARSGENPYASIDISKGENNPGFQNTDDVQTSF
Chain of Neprilysin (P08473 whole entry): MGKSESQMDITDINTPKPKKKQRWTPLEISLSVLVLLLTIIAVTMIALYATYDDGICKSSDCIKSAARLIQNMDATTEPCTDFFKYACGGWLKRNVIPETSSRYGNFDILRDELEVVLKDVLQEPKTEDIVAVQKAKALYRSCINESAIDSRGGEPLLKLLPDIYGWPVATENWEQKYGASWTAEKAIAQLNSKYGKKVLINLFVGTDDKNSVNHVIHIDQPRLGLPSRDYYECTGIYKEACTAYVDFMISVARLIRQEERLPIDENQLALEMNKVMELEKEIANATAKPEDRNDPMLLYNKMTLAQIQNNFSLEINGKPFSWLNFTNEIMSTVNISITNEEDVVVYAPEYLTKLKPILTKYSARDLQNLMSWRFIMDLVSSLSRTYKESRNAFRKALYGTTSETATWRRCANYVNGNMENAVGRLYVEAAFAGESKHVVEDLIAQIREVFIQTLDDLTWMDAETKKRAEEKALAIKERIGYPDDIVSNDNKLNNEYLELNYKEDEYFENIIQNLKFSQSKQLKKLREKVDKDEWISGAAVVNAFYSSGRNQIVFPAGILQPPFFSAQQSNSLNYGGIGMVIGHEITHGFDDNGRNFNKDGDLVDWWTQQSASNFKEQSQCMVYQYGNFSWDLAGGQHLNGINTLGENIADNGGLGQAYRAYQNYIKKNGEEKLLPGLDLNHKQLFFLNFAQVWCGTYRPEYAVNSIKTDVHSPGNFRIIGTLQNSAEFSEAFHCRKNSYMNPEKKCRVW

CC(=O)NCC(=O)N[C@@H](CC(=O)O)C(=O)N[C@@H](Cc1ccc(O)cc1)C(=O)N[C@@H](CO)C(=O)N[C@@H](Cc1cnc[nH]1)C(=O)N[C@H]1CSSC[C@@H](C(=O)N[C@H](C(=O)N[C@@H](Cc2ccc(O)cc2)C(=O)N2CCC[C@H]2C(=O)N[C@@H](CC(=O)O)C(=O)N2CCC[C@H]2C(=O)N[C@@H](CCC(=O)O)C(=O)NCC(=O)NCC(=O)NCC(N)=O)[C@@H](C)O)NC(=O)[C@H](CCCCN)NC(=O)[C@H](Cc2c[nH]c3ccccc23)NC(=O)[C@H](Cc2c[nH]c3ccccc23)NC(=O)[C@@H]2CCCN2C(=O)[C@H](Cc2ccc(O)cc2)NC(=O)[C@H](Cc2ccc(O)cc2)NC(=O)[C@H](CCCNC(=N)N)NC(=O)[C@H](CC(C)C)NC(=O)[C@@H]2CCCN2C(=O)[C@H](CO)NC1=O
IC50 [1]: 10 nM

CC[C@@H](C)[C@H](S)C(=O)N[C@@H](Cc1ccc(Oc2ccccc2)cc1)C(=O)O
Ki [2]: 8900 nM | Selectivity ratio [3]: > 100 | Ki [4]: 10 nM | Ki [5]: 250 nM | Ki [6]: 2.2 nM

NCCNCCN1CC1
IC50 [1]: 57000 nM

CC[C@@H](C)[C@H](S)C(=O)N[C@@H](Cc1cccc(OCc2ccccc2)c1)C(=O)O
Ki [2]: 5000 nM | Ki [4]: 37 nM | Ki [5]: 750 nM | Selectivity ratio [7]: 15 | Ki [6]: 2.4 nM

CC[C@@H](C)[C@H](S)C(=O)NCC(=O)O
Ki [2]: 35000 nM | Ki [4]: 5100 nM | Ki [5]: 250 nM | Ki [6]: 90 nM

CC[C@@H](C)[C@H](S)C(=O)N[C@@H](Cc1ccc2ccccc2c1)C(=O)O
Selectivity ratio [8]: > 100 | Ki [2]: 7200 nM | Selectivity ratio [3]: > 100 | Ki [4]: 46 nM | Ki [5]: 310 nM | Ki [6]: 2.4 nM

CC[C@@H](C)[C@H](S)C(=O)N[C@@H](Cc1ccc(OCc2cc(C(F)(F)F)cc(C(F)(F)F)c2)cc1)C(=O)O
Ki [2]: 11000 nM | Ki [4]: 11000 nM | Ki [5]: 25000 nM | Ki [6]: 84 nM

CC[C@@H](C)[C@H](S)C(=O)N[C@@H](Cc1ccc(O)cc1)C(=O)O
Ki [2]: 350 nM | Ki [4]: 75 nM | Ki [5]: 410 nM | Ki [6]: 1.3 nM

CC[C@@H](C)[C@H](S)C(=O)N[C@@H](Cc1ccccc1)C(=O)O
Ki [2]: 530 nM | Ki [4]: 35 nM | Ki [5]: 570 nM | Ki [6]: 1.5 nM

CC[C@@H](C)[C@H](S)C(=O)N[C@@H](C)C(=O)O
Ki [2]: 11000 nM | Ki [4]: 950 nM | Ki [5]: 180 nM | Ki [6]: 14 nM

CC[C@@H](C)[C@H](S)C(=O)N[C@@H](Cc1cccc2ccccc12)C(=O)O
Selectivity ratio [8]: > 100 | Ki [2]: 3600 nM | Selectivity ratio [3]: > 100 | Ki [4]: 12 nM | Ki [5]: 1800 nM | Ki [6]: 2.2 nM

CC[C@@H](C)[C@H](S)C(=O)N[C@@H](Cc1ccccc1OCc1ccccc1)C(=O)O
Ki [2]: 1600 nM | Ki [4]: 120 nM | Ki [5]: 770 nM | Selectivity ratio [7]: 20 | Ki [6]: 6 nM

CC[C@@H](C)[C@H](S)C(=O)N[C@@H](Cc1cccc(Oc2ccccc2)c1)C(=O)O
Ki [2]: 14000 nM | Ki [4]: 79 nM | Ki [5]: 1100 nM | Ki [6]: 5.8 nM

CC[C@@H](C)[C@H](S)C(=O)N[C@@H](Cc1cccc(-c2ccccc2)c1)C(=O)O
Ki [2]: 5000 nM | Ki [4]: 19 nM | Ki [5]: 1000 nM | Ki [6]: 2.2 nM

CC[C@@H](C)[C@H](S)C(=O)N[C@@H](Cc1ccc(OCc2ccc(F)c(F)c2)cc1)C(=O)O
Selectivity ratio [8]: > 750 | Ki [2]: 3300 nM | Selectivity ratio [3]: > 750 | Ki [4]: 640 nM | Ki [5]: 1800 nM | Ki [6]: 0.85 nM

CC[C@@H](C)[C@H](S)C(=O)N[C@@H](Cc1ccccc1Oc1ccccc1)C(=O)O
Ki [2]: 2300 nM | Ki [4]: 180 nM | Ki [5]: 5000 nM | Selectivity ratio [7]: 200 | Ki [6]: 0.9 nM

CC[C@@H](C)[C@H](S)C(=O)N[C@@H](Cc1ccc(OCc2ccc(F)cc2)cc1)C(=O)O
Ki [2]: 16000 nM | Ki [4]: 180 nM | Ki [5]: 4000 nM | Ki [6]: 2.5 nM

CC[C@@H](C)[C@H](S)C(=O)N[C@@H](Cc1ccc(OCc2ccccc2)cc1)C(=O)O
Ki [2]: 4600 nM | Ki [4]: 300 nM | Ki [5]: 570 nM | Selectivity ratio [7]: 110 | Ki [6]: 2.7 nM

CC[C@@H](C)[C@H](S)C(=O)N[C@@H](Cc1ccc(OCc2ccc(C(F)(F)F)cc2)cc1)C(=O)O
Ki [2]: 4600 nM | Ki [4]: 1500 nM | Ki [5]: 2600 nM | Ki [6]: 35 nM

CC[C@@H](C)[C@H](S)C(=O)N[C@@H](Cc1ccc(OCc2ccc(F)cc2F)cc1)C(=O)O
Ki [2]: 1900 nM | Ki [4]: 75 nM | Ki [5]: 950 nM | Ki [6]: 2 nM

CC[C@@H](C)[C@H](S)C(=O)N[C@@H](Cc1ccccc1-c1ccccc1)C(=O)O
Ki [2]: 9900 nM | Ki [4]: 190 nM | Ki [5]: 20000 nM | Ki [6]: 37 nM
